Holding throughout (type): functional
Experiment [1] deals with Mycobacterium tuberculosis. Description: AntiMycobacterium tuberculosis activity Non-Replicating form: Average MIC90 (uM).
The test system of experiment [2] is Mycobacterium tuberculosis. In words: AntiMycobacterium tuberculosis activity 1-week GAST/Fe MIC (uM). Conditions: 168 h.
For experiment [3], the system named is Mycobacterium tuberculosis. In words: AntiMycobacterium tuberculosis activity 2-week GAST/Fe MIC (uM). Conditions: 336 h.
The subject of experiment [4] is Mycobacterium tuberculosis. Description: AntiMycobacterium tuberculosis activity 1-week 7H9/ADC/Tw MIC (uM). The note with it: 168 h.
The subject of experiment [5] is Mycobacterium tuberculosis. Description: AntiMycobacterium tuberculosis activity 2-week 7H9/ADC/Tw MIC (uM). The note with it: 336 h.
The test system of experiment [6] is Mycobacterium tuberculosis. In words: AntiMycobacterium tuberculosis activity 2-week Alamar Blue 7H9/ADC/Tw MIC (uM). The note with it: 336 h. Background: Resazurin is reduced to fluorescent resorufin, in cell work by metabolically active cells.
Experiment [7] deals with Mycobacterium tuberculosis. Description: AntiMycobacterium tuberculosis activity 1-week 7H9/glucose/BSA/Tx MIC (uM). The note with it: 168 h.
Experiment [8] deals with Mycobacterium tuberculosis. Description: AntiMycobacterium tuberculosis activity 2-week 7H9/glucose/BSA/Tx MIC (uM). Conditions: 336 h.
Experiment [9] relates to Mycobacterium tuberculosis. Description: AntiMycobacterium tuberculosis activity 1-week 7H9/DPPC/cholesterol/BSA/Tx MIC (uM). The note with it: 168 h.
For experiment [10], the system named is Mycobacterium tuberculosis. In words: AntiMycobacterium tuberculosis activity 2-week 7H9/DPPC/cholesterol/BSA/Tx MIC (uM). Conditions: 336 h.
Experiment [11] concerns Mycobacterium tuberculosis. Description: AntiMycobacterium tuberculosis activity 1-week 7H9/cholesterol/BSA/Tx MIC (uM). The note with it: 168 h.
For experiment [12], the system named is Mycobacterium tuberculosis. Description: AntiMycobacterium tuberculosis activity 2-week Alamar Blue 7H9/cholesterol/BSA/Tx MIC (uM). Conditions: 336 h.
Experiment [13] concerns Mycobacterium tuberculosis. In words: (§1) AntiMycobacterium tuberculosis activity day 10 in 7H9/2.5mM butyrate/pH6/0.1mM nitrite MIC90 (uM). The note with it: 240 h.
In experiment [14] the test system is Mycobacterium tuberculosis. In words: AntiMycobacterium tuberculosis activity day 21 in 7H9/2.5mM butyrate/pH6/0.1mM nitrite MIC90 (uM). The note with it: 504 h.
Experiment [15] deals with Mycobacterium tuberculosis. The experiment is described as §1. The note with it: 240 h. The source holds these as a separate data set.
Experiment [16] concerns Mycobacterium tuberculosis. In words: AntiMycobacterium tuberculosis activity day 21 MIC99 in 7H9/2.5mM butyrate/pH6/0.1mM nitrite MIC99 (uM). The note with it: 504 h.
Experiment [17] relates to Mycobacterium tuberculosis. In words: AntiMycobacterium tuberculosis activity Replicating form: Average MIC90 (uM).
The subject of another experiment is HepG2. In words: HepG2 CC50 (uM) Cytotoxicity. Conditions: Homo sapiens.

Converted amounts (≈) assume the structure as drawn.

What is called MIC90 is the lowest concentration that inhibits either 90% of growth or 90% of the strains tested, depending on the study. The term MIC denotes the smallest concentration in the dilution series that meets the test's criterion for growth inhibition. Low readings indicate inhibition by little substance, high ones a need for much substance. For orientation: CC50 means the concentration that lowers cell viability or growth by half. Lower therefore signals greater toxicity to the cells. Take `CC(Oc1ccccc1)C(=O)Nc1nc(-c2ccccn2)cs1` (stereo not given): the MIC90 in [1] worked out at 41.7 µM (≈ 13.6 µg/mL); in experiment [13], 12.5 µM (≈ 4.07 µg/mL); in experiment [14], 12.5 µM (≈ 4.07 µg/mL); in experiment [15], 6.25 µM (≈ 2.03 µg/mL); in experiment [17] it was 91.3 µM (≈ 29.7 µg/mL). The MIC in experiment [2] turned out to be 1.56 µM (≈ 0.508 µg/mL); in experiment [3], 2.3 µM (≈ 0.748 µg/mL); in experiment [4], 12.5 µM (≈ 4.07 µg/mL); in experiment [5], 12.5 µM (≈ 4.07 µg/mL); in experiment [6], 12.5 µM (≈ 4.07 µg/mL); in [7], 12.5 µM (≈ 4.07 µg/mL). Besides, the MIC was 50 µM (≈ 16.3 µg/mL) in experiment [8]; 25 µM (≈ 8.13 µg/mL) in experiment [9]; more than 50 µM in experiment [10]; 9.4 µM (≈ 3.06 µg/mL) in experiment [11]; 19 µM (≈ 6.18 µg/mL) in [12]; 6.25 µM (≈ 2.03 µg/mL) in [16]. Moreover, half-maximal cytotoxicity with HepG2 (CC50) was put at 29.3 µM.
Regarding `O=C(c1cc2ccccc2o1)N1CCN(Cc2ccc3c(c2)OCO3)CC1`, the MIC90 in [1] was 16.6 µM (≈ 6.07 µg/mL); in experiment [13] it was 50 µM (≈ 18.2 µg/mL); in experiment [14] it was more than 50 µM; in experiment [15], more than 50 µM; in experiment [17] it was more than 100 µM. The MIC is 0.1 µM (≈ 0.0364 µg/mL) in experiment [2]; 0.2 µM (≈ 0.0729 µg/mL) in [3]; more than 50 µM in [4]; more than 50 µM in experiment [5]; 12.5 µM (≈ 4.56 µg/mL) in experiment [6]; more than 50 µM in [7]. Moreover, the MIC was more than 50 µM in [8]; 19 µM (≈ 6.92 µg/mL) in [9]; 50 µM (≈ 18.2 µg/mL) in [10]; 37 µM (≈ 13.5 µg/mL) in experiment [11]; 6.25 µM (≈ 2.28 µg/mL) in experiment [12]; more than 50 µM in experiment [16]. The molecule further came in with a cytotoxic concentration (CC50) in the experiment with HepG2 of more than 100 µM.
In the case of `COc1cccc(-n2nnnc2S(C)(=O)=O)c1`, the MIC90 in experiment [1] is 3.34 µM (≈ 0.849 µg/mL); in experiment [13], 6.25 µM (≈ 1.59 µg/mL); in [14], 12.5 µM (≈ 3.18 µg/mL); in experiment [15], 6.25 µM (≈ 1.59 µg/mL); in [17], 9.47 µM (≈ 2.41 µg/mL). For the same molecule, the minimal inhibitory concentration (MIC) in experiment [2] turned out to be 0.78 µM (≈ 0.198 µg/mL); in experiment [3], 1.2 µM (≈ 0.305 µg/mL); in experiment [4] it was 12.5 µM (≈ 3.18 µg/mL); in experiment [5], 25 µM (≈ 6.36 µg/mL); in [6], 25 µM (≈ 6.36 µg/mL); in [7], 9.4 µM (≈ 2.39 µg/mL). For the same molecule, the minimum inhibitory concentration (MIC) in experiment [8] came to 25 µM (≈ 6.36 µg/mL); in experiment [9] it was 12.5 µM (≈ 3.18 µg/mL); in [10], 50 µM (≈ 12.7 µg/mL); in experiment [11], 19 µM (≈ 4.83 µg/mL); in experiment [12], 50 µM (≈ 12.7 µg/mL); in experiment [16] it was 12.5 µM (≈ 3.18 µg/mL). This molecule also came in with a 50% cytotoxic concentration (CC50) in the experiment with HepG2 of 1.7 µM.
Consider `COc1ccc(OC(C)C(=O)Nc2ccc(Cl)cc2C)cc1` (stereo not given), for which the MIC90 in [1] was 12.2 µM (≈ 3.91 µg/mL); in experiment [13], 25 µM (≈ 7.99 µg/mL); in experiment [14] it was 25 µM (≈ 7.99 µg/mL); in experiment [15], more than 50 µM; in [17], 14.6 µM (≈ 4.68 µg/mL). In addition, the MIC in [2] came to 2.3 µM (≈ 0.736 µg/mL); in experiment [3], 2.3 µM (≈ 0.736 µg/mL); in experiment [4], 4.7 µM (≈ 1.5 µg/mL); in experiment [5], 6.25 µM (≈ 2 µg/mL); in [6] it was 6.25 µM (≈ 2 µg/mL); in [7], 9.4 µM (≈ 3.01 µg/mL). For the same molecule, the MIC was 9.4 µM (≈ 3.01 µg/mL) in experiment [8]; 6.25 µM (≈ 2 µg/mL) in experiment [9]; 6.25 µM (≈ 2 µg/mL) in [10]; 9.4 µM (≈ 3.01 µg/mL) in [11]; 12.5 µM (≈ 4 µg/mL) in experiment [12]; 50 µM (≈ 16 µg/mL) in experiment [16]. This molecule registered a CC50 with HepG2 of more than 100 µM.
As for `Cc1cc(Cl)ccc1NC(=O)CCc1ccc(S(=O)(=O)NCC(C)C)cc1`, the MIC90 was 13.4 µM (≈ 5.49 µg/mL) in experiment [1]; more than 50 µM in [13]; 25 µM (≈ 10.2 µg/mL) in experiment [14]; more than 50 µM in experiment [15]; 14.4 µM (≈ 5.87 µg/mL) in [17]. Further, the minimal inhibitory concentration (MIC) in experiment [2] came out at 2.3 µM (≈ 0.941 µg/mL); in experiment [3], 2.3 µM (≈ 0.941 µg/mL); in experiment [4], 4.7 µM (≈ 1.92 µg/mL); in [5] it was 6.25 µM (≈ 2.56 µg/mL); in experiment [6], 6.25 µM (≈ 2.56 µg/mL); in [7], 4.7 µM (≈ 1.92 µg/mL). The MIC in experiment [8] is 6.25 µM (≈ 2.56 µg/mL); in [9] it was 3.13 µM (≈ 1.28 µg/mL); in experiment [10] it was 3.13 µM (≈ 1.28 µg/mL); in experiment [11], 3.13 µM (≈ 1.28 µg/mL); in experiment [12], 6.25 µM (≈ 2.56 µg/mL); in experiment [16], 50 µM (≈ 20.4 µg/mL). In the experiment on HepG2, this molecule registered a CC50 of more than 100 µM.

The record behind these values is ChEMBL document CHEMBL3832761, “MMV Pathogen Box Bioactivity Data” (2017).
